{"source": "PubChem BioAssay AID256", "about": "(DTP/NCI, 2004)", "system": "CD2F1 mice, L1210 leukemia ip, survival T/C", "assay": "NCI In Vivo Anticancer Drug Screen. Data for tumor model L1210 Leukemia (intraperitoneal) in CD2F1 (CDF1) mice", "conditions": "higher = longer survival", "summary_of_the_method": "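Ratio T/C, where T is the treated-group value and C the vehicle-dosed control value, from mice implanted with a transplantable tumor.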", "key": {"[1]": {"conditions": "endpoint: mean survival time, dose: 100.0 mg/kg/injection, schedule: Q04DX002 (ip), vehicle: saline with Tween-80"}, "[2]": {"conditions": "endpoint: mean survival time, dose: 200.0 mg/kg/injection, schedule: Q04DX002 (ip), vehicle: saline with Tween-80"}, "[3]": {"conditions": "endpoint: mean survival time, dose: 25.0 mg/kg/injection, schedule: Q01DX009 (ip), vehicle: saline with Tween-80"}, "[4]": {"conditions": "endpoint: mean survival time, dose: 50.0 mg/kg/injection, schedule: Q01DX009 (ip), vehicle: saline with Tween-80"}, "[5]": {"conditions": "endpoint: mean survival time, dose: 100.0 mg/kg/injection, schedule: Q01DX009 (ip), vehicle: saline with Tween-80"}}, "note": "“And” between values parts separate entries of the source, which are not always exact repeats. Equal values may be shown once. Toxic doses and inconclusive results are not listed.", "data": [{"smiles": "[Cl][Pt+2][Cl].[NH-]C(C(=O)O)C([NH-])C(=O)O", "note": "(stereo not drawn)", "values": [{"measurement": "T/C", "setting": "endpoint: mean survival time, dose: 50.0 mg/kg/injection, schedule: Q04DX003 (ip), vehicle: saline", "value": "100 % of control"}, {"measurement": "T/C", "setting": "endpoint: mean survival time, dose: 100.0 mg/kg/injection, schedule: Q04DX003 (ip), vehicle: saline", "value": "106 % of control"}, {"measurement": "T/C", "setting": "endpoint: mean survival time, dose: 200.0 mg/kg/injection, schedule: Q04DX003 (ip), vehicle: saline", "value": "104 % of control"}]}, {"smiles": "CCN(CC)C(=O)Nc1cc(Cl)ccc1Cl", "values": [{"measurement": "T/C", "setting": "[1]", "value": "97 % of control"}, {"measurement": "T/C", "setting": "[2]", "value": "101 % of control"}]}, {"smiles": "COC(=O)C1OC1(C)c1ccc(C)cc1", "note": "(stereo not drawn)", "values": [{"measurement": "T/C", "setting": "[3]", "value": "89 % of control"}, {"measurement": "T/C", "setting": "[4]", "value": "94 % of control"}, {"measurement": "T/C", "setting": "[5]", "value": "93 % of control"}]}, {"smiles": "CC(C)OC(=O)N(C(=O)OC(C)C)c1ccc(Cl)cc1", "values": [{"measurement": "T/C", "setting": "[1]", "value": "97 % of control"}, {"measurement": "T/C", "setting": "[2]", "value": "94 % of control"}, {"measurement": "T/C", "setting": "endpoint: mean survival time, dose: 400.0 mg/kg/injection, schedule: Q04DX002 (ip), vehicle: saline with Tween-80", "value": "102 % of control"}]}, {"smiles": "CC1OCOC(C)C1C", "note": "(stereo not drawn)", "values": [{"measurement": "T/C", "setting": "endpoint: mean survival time, dose: 50.0 mg/kg/injection, schedule: Q01DX005 (ip), vehicle: saline", "value": "108 % of control"}, {"measurement": "T/C", "setting": "[4]", "value": "91 % of control"}, {"measurement": "T/C", "setting": "endpoint: mean survival time, dose: 50.0 mg/kg/injection, schedule: Q04DX002 (ip), vehicle: saline + alcohol", "value": "103 % of control"}, {"measurement": "T/C", "setting": "endpoint: mean survival time, dose: 100.0 mg/kg/injection, schedule: Q01DX005 (ip), vehicle: saline", "value": "108 % of control"}, {"measurement": "T/C", "setting": "[5]", "value": "91 % of control"}, {"measurement": "T/C", "setting": "endpoint: mean survival time, dose: 100.0 mg/kg/injection, schedule: Q04DX002 (ip), vehicle: saline + alcohol", "value": "95 % of control"}, {"measurement": "T/C", "setting": "endpoint: mean survival time, dose: 200.0 mg/kg/injection, schedule: Q01DX005 (ip), vehicle: saline", "value": "108 % of control"}, {"measurement": "T/C", "setting": "endpoint: mean survival time, dose: 200.0 mg/kg/injection, schedule: Q01DX009 (ip), vehicle: saline with Tween-80", "value": "91 % of control"}, {"measurement": "T/C", "setting": "endpoint: mean survival time, dose: 200.0 mg/kg/injection, schedule: Q04DX002 (ip), vehicle: saline + alcohol", "value": "88 % of control"}, {"measurement": "T/C", "setting": "endpoint: mean survival time, dose: 400.0 mg/kg/injection, schedule: Q01DX005 (ip), vehicle: saline", "value": "102 % of control"}, {"measurement": "T/C", "setting": "endpoint: mean survival time, dose: 400.0 mg/kg/injection, schedule: Q01DX009 (ip), vehicle: saline with Tween-80", "value": "98 % of control"}, {"measurement": "T/C", "setting": "endpoint: mean survival time, dose: 400.0 mg/kg/injection, schedule: Q04DX002 (ip), vehicle: saline + alcohol", "value": "95 % of control"}]}, {"smiles": "COc1ccc2c(c1)-c1nn(CCCN(C)C)c3ccc([N+](=O)[O-])c(c13)N2", "values": [{"measurement": "T/C", "setting": "endpoint: median survival time, dose: 3.12 mg/kg/injection, schedule: Q01DX005 (ip), vehicle: water", "value": "152 % of control"}, {"measurement": "T/C", "setting": "endpoint: median survival time, dose: 3.12 mg/kg/injection, schedule: Q01DX009 (ip), vehicle: water", "value": "168 % of control"}, {"measurement": "T/C", "setting": "endpoint: median survival time, dose: 6.25 mg/kg/injection, schedule: Q01DX005 (ip), vehicle: water", "value": "152 % of control"}, {"measurement": "T/C", "setting": "endpoint: median survival time, dose: 6.25 mg/kg/injection, schedule: Q01DX009 (ip), vehicle: water", "value": "216 % of control"}, {"measurement": "T/C", "setting": "endpoint: median survival time, dose: 7.5 mg/kg/injection, schedule: Q01DX005 (ip), vehicle: water", "value": "164 % of control"}, {"measurement": "T/C", "setting": "endpoint: median survival time, dose: 12.5 mg/kg/injection, schedule: Q01DX005 (ip), vehicle: water", "value": "180 % of control"}, {"measurement": "T/C", "setting": "endpoint: median survival time, dose: 12.5 mg/kg/injection, schedule: Q01DX009 (ip), vehicle: water", "value": "113 % of control"}, {"measurement": "T/C", "setting": "endpoint: median survival time, dose: 20.83 mg/kg/injection, schedule: Q01DX005 (ip), vehicle: water", "value": "225 % of control"}, {"measurement": "T/C", "setting": "endpoint: median survival time, dose: 25.0 mg/kg/injection, schedule: Q01DX005 (ip), vehicle: water", "value": "109 % of control"}, {"measurement": "T/C", "setting": "endpoint: median survival time, dose: 34.72 mg/kg/injection, schedule: Q01DX005 (ip), vehicle: water", "value": "107 % of control"}, {"measurement": "T/C", "setting": "endpoint: median survival time, dose: 50.0 mg/kg/injection, schedule: Q01DX005 (ip), vehicle: water", "value": "92 % of control and 94 % of control"}, {"measurement": "T/C", "setting": "endpoint: median survival time, dose: 50.0 mg/kg/injection, schedule: Q01DX009 (ip), vehicle: water", "value": "116 % of control"}]}, {"smiles": "O=C1C2C=CC=CC1C1C=CC=CC21", "note": "(stereo not drawn)", "values": [{"measurement": "T/C", "setting": "endpoint: median survival time, dose: 50.0 mg/kg/injection, schedule: Q04DX002 (ip), vehicle: saline with Tween-80", "value": "112 % of control"}, {"measurement": "T/C", "setting": "endpoint: median survival time, dose: 100.0 mg/kg/injection, schedule: Q04DX002 (ip), vehicle: saline with Tween-80", "value": "100 % of control"}, {"measurement": "T/C", "setting": "endpoint: median survival time, dose: 200.0 mg/kg/injection, schedule: Q04DX002 (ip), vehicle: saline with Tween-80", "value": "100 % of control"}, {"measurement": "T/C", "setting": "endpoint: median survival time, dose: 400.0 mg/kg/injection, schedule: Q04DX002 (ip), vehicle: saline with Tween-80", "value": "100 % of control"}]}, {"smiles": "CCOS(=O)(=O)c1ccc(Cl)c([N+](=O)[O-])c1", "values": [{"measurement": "T/C", "setting": "endpoint: mean survival time, dose: 12.5 mg/kg/injection, schedule: Q01DX009 (ip), vehicle: saline with Tween-80", "value": "100 % of control"}, {"measurement": "T/C", "setting": "[3]", "value": "105 % of control"}, {"measurement": "T/C", "setting": "[4]", "value": "94 % of control and 100 % of control"}, {"measurement": "T/C", "setting": "endpoint: mean survival time, dose: 100.0 mg/kg/injection, schedule: Q04DX003 (ip), vehicle: saline with Tween-80", "value": "103 % of control"}]}]}
